According to patent US9126989B2, “Compound and methods for treating long QT syndrome” (Gilead Sciences, Inc., priority 2013, dated 2015):
“Also recorded” adds a separate entry of the source. Values belong to the molecule of their own block, whether it stands above or below them.

Experiments:
[1] = molecular target: T1, cardiac late sodium current (INa) (Homo sapiens, UniProt Q14524); experiment: Inhibition of the cardiac late sodium current; type: biochemical
[2] = molecular target: T1, cardiac late sodium current (INa); settings: see US 2013/0012492; cited from earlier work
[3] = tested on: cytochrome P450 (CYP) enzymes; experiment: Cytochrome P450 inhibition; type: in vitro ADME
P-glycoproteins = P-glycoproteins (Homo sapiens, UniProt P08183); experiment: P-glycoprotein inhibition; type: in vitro ADME
[4] = tested on: model of long QT syndrome-3 (LQT3); experiment: Model of LQT-3: action potential duration and beat-to-beat variability
patients with LQT3 = experiment: Phase 1 clinical study in patients with LQT3 (QTc, ECHO, tolerability); type: in vivo, human; settings: for Tolerability: Phase 1; for Change in QTc from baseline: all dose levels (10-60 mg single, multiple dose cohort)
Protocol: In an ongoing Phase 1, effect of oral Compound (I) on the QTc interval in subjects with LQT3 was evaluated. Subjects with LQT3 identified from the LQTS registry with proven mutations in the cardiac sodium channel and a QTc >460 msec will be enrolled. Four sequential single dose cohorts and 1 multiple dose cohort were enrolled and received a single dose of Compound (I) (Cohort 1: 10 mg; Cohort 2: 20 mg; Cohort 3: 30 mg; Cohort-4: 60 mg) or multiple doses of Compound (I) (Cohort 5: Day 1—20 mg, Day 2—40 mg, Days 3-7—6 mg once daily).
Ten subjects were enrolled. Among these 10 subjects, 3 subjects received single oral dose of Compound (I), 5 subjects received Compound (I) at 2 different dose periods, and 2 subjects received Compound (I) at 3 different dose periods. […] Changes in QTc interval from baseline (Day −1 for Cohorts 1-4; average of Day −2 and Day −1 for Cohort 5) were analyzed in 2 different ways: 1) changes in average daytime QTc during 12 hours postdose (QTc interval AUC0-12/12) and 2) maximal time-matched QTc changes within 12 hours postdose. […] In the multiple dose cohort (shown in FIG. 5-6), the effect of Compound (I) on QTc shortening was dose-dependent with a larger QTc shortening after 40 mg on Day 2 compared to 20 mg on Day 1. More importantly, the QTc shortening was sustained during the maintenance doses of 6 mg from Days 3-7.
In addition, effect of Compound (I) on cardiac function was assessed by ECHO. For the single dose cohorts, echocardiography (ECHO) was performed at baseline (Day −1) and at 3 and 6 hours after the single oral dose of Compound (I) on Day 1. For the multiple dose cohort (Cohort 5), ECHO was performed at baseline (Day −1), at 3 and 6 hours after the single oral dose of Compound (I) on Day 1, and at 3 hours after dose on Day 4 and Day 7.

[5] = PK after single oral dose in patients with LQT-3; type: in vivo, human
Text: This is similar to the PK profile of Compound 1 in healthy volunteers.

rabbit isolated heart = experiment: Rabbit isolated heart, E-4031 model of LQT-2 and drug-induced QT prolongation
Text: E-4031 is an inhibitor of IKr. […] Hearts were paced at a rate of 1 Hz.
The use of rabbits (New Zealand White adult females, 2-4 kg; Western Oregon Rabbit Company, Philomath, Oreg.) in this investigation conformed to the “Guide for the Care and Use of Laboratory Animals” (NIH publication No. 85-23, revised 1996) and was approved by the Institutional Animal Care and Use Committees of Gilead Sciences. Hearts were isolated and perfused by the method of Langendorff as previously described (Wu et al., 2009). Briefly, the atrioventricular nodal area was thermally ablated to produce heart block, and hearts were paced at a rate of 1 Hz. Monophasic action potentials (MAPs) from the left ventricular epicardium and pseudo 12-lead electrocardiograms (ECGs) were recorded. […] The duration of the MAP at the level at which repolarization is 90% complete (MAPD90) was measured.

[6] = tested on: rabbit isolated wedge preparation; experiment: Rabbit isolated left ventricular wedge preparation, E-4031 model of LQT-2; settings: 60 nM E-4031, 300 nM Compound 1, cycle lengths 500, 1000 and 2000 msec
Protocol: E-4031 is an inhibitor of IKr.
Rabbit isolated left ventricular wedge was prepared as previously described (Yan et al, 1996, 2009). Briefly, the chest was opened via a left thoracotomy, and the heart was excised, placed in a cardioplegic solution consisting of cold (4° C.) Tyrode's solution containing 20 mmol/L […], and transported to a dissection tray. Transmural wedges with dimensions of approximately 1×1×0.8 or 0.8×0.8×0.4 cm^3 were dissected from the left ventricle. The tissue was cannulated via a small (diameter, ≈100 μm) branch of the left anterior descending artery or another coronary artery and perfused with cardioplegic solution. The total period of time from excision of the heart to cannulation and perfusion of the artery was less than 4 minutes. Unperfused tissue was carefully removed with a razor blade. The preparation was then placed in a tissue bath and arterially perfused with Tyrode's solution of the following composition (mmol/L): NaCl 129, KCl 4, NaH2PO4 0.9, NaHCO3 20, Ca 1.8, MgSO4 0.5, glucose 5.5, and insulin 1 U/L, buffered with 95% O2/5% CO2 (36±1° C.). The perfusate was delivered to the artery by a roller pump (Cole Panner Instrument Co). Perfusion pressure was monitored with a pressure transducer (World Precision Instruments, Inc) and maintained between 40 and 50 mm Hg by adjustment of the perfusion flow rate. The preparations remained immersed in the arterial perfusate, which was allowed to rise to a level 2 to 3 mm above the tissue surface (36±1° C.).

[7] = LQT3 patients, listed as Compound (I)
[8] = after single dose administration

T1 sequence (Q14524 whole entry): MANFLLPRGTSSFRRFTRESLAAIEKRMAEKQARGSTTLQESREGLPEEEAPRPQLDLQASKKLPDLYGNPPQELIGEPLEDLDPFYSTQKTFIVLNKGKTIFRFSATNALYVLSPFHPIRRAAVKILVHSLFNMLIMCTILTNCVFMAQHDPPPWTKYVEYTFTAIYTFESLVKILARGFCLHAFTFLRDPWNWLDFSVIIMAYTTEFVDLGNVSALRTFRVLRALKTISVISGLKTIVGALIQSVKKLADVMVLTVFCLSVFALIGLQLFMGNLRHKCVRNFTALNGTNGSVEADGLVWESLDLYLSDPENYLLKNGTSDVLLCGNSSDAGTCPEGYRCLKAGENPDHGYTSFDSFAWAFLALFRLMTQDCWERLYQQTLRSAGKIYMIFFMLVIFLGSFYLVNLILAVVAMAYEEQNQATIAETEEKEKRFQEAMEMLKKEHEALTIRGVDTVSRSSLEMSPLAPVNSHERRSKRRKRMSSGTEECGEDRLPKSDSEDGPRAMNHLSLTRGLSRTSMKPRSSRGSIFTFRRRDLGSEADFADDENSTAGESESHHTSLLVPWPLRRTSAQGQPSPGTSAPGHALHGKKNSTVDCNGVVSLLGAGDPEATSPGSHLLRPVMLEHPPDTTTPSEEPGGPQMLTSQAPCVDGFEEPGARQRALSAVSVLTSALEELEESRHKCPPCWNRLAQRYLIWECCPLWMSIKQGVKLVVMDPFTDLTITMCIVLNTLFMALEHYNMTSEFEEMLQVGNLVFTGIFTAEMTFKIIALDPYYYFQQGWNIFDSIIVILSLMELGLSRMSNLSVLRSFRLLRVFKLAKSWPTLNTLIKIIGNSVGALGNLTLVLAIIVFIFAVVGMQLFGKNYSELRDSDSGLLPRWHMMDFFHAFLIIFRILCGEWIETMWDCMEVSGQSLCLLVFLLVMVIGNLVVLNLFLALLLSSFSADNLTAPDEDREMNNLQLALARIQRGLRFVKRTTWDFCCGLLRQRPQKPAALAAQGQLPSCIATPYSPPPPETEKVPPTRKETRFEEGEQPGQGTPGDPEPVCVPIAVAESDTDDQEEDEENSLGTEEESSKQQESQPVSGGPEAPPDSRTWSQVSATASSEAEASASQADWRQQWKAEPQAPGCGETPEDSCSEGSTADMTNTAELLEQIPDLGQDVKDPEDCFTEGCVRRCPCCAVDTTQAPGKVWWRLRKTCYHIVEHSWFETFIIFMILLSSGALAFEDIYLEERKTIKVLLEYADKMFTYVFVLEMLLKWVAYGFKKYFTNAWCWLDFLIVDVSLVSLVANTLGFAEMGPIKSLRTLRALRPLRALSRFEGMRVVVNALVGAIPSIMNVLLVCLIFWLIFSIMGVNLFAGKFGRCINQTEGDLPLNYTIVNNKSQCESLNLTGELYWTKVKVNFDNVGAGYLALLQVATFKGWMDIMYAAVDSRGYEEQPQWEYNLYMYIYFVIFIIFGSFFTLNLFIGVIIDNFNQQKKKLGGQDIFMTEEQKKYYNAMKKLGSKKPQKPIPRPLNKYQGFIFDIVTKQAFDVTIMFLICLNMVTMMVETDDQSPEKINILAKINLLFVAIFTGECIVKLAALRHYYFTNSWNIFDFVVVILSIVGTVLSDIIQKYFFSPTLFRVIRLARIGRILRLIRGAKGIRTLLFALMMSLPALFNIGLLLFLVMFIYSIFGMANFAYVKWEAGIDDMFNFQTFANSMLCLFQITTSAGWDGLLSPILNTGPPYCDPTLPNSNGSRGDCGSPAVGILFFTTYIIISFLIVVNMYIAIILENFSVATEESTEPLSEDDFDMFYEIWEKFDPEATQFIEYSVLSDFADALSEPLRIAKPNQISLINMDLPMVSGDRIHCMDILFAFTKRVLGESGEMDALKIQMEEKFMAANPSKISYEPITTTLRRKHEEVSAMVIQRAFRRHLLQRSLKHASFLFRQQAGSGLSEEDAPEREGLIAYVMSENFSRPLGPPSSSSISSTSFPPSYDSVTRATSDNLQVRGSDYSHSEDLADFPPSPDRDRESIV
Chain of P-glycoproteins (P08183 whole entry): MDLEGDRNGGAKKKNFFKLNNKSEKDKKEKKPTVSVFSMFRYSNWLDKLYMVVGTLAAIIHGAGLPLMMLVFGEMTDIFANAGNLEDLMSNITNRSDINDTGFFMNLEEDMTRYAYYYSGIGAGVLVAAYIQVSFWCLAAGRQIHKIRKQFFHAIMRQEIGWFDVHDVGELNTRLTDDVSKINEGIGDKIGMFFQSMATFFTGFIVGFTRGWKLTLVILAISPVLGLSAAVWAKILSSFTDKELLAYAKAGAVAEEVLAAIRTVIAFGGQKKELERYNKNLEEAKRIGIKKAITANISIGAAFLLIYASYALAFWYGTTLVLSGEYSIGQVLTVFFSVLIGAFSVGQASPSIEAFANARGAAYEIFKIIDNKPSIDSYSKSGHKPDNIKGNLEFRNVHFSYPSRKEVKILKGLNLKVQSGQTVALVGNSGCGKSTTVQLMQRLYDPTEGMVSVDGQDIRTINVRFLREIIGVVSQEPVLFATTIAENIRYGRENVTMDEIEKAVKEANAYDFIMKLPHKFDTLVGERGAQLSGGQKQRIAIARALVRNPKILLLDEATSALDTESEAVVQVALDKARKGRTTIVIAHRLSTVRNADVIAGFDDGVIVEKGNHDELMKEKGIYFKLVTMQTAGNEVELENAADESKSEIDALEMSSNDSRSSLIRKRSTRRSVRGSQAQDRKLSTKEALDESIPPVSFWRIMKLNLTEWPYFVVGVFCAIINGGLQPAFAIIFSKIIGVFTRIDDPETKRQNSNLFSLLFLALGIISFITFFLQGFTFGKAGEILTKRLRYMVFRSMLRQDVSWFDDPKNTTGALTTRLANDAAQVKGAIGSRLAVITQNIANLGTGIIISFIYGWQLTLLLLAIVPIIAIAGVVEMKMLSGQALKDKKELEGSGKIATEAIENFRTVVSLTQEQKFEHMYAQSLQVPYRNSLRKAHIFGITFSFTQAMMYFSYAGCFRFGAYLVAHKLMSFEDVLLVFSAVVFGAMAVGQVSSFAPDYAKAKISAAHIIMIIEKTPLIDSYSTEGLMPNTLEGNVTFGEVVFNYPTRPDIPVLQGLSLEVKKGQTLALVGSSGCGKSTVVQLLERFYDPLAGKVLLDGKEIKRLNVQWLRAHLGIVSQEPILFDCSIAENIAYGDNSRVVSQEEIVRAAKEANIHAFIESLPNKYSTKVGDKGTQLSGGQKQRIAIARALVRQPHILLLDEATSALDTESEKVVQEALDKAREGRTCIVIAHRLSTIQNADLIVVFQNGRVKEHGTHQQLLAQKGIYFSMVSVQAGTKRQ

- Inhibition of the cardiac late sodium current (INa) [1]: potent and selective inhibitors
SMILES: O=C1c2cc(-c3ccc(C(F)(F)F)cc3)ccc2OCCN1Cc1ncccn1 [Compound 2, 4-(pyrimidin-2-ylmethyl)-7-(4-(trifluoromethyl)phenyl)-3,4-dihydrobenzo[f][1,4]oxazepin-5(2H)-one]
- Late sodium channel inhibition [2]: potent late sodium channel inhibitors

- Inhibition of the cardiac late sodium current (INa) [1]: potent and selective inhibitors
- Inhibition of cytochrome P450 (CYP) enzymes [3]: does not inhibit
- Inhibition of P-glycoproteins (P-glycoproteins): does not inhibit
- Absorption [5, 8]: fast absorption
- Clearance [5, 8]: low clearance
- Decline of concentration [5, 8]: biphasic decline
- Half-life [5, 8]: long half-life
- PK profile in LQT3 patients compared with healthy volunteers ([5]; single oral dose, FIG. 4): similar
SMILES: O=C1c2cc(-c3ccc(OC(F)(F)F)cc3)ccc2OCCN1Cc1ncccn1 [Compound 1, 4-(pyrimidin-2-ylmethyl)-7-(4-(trifluoromethoxy)phenyl)-3,4-dihydrobenzo[f][1,4]oxazepin-5(2H)-one]
- Beat-to-beat variability ([4]; model of LQT3, FIG. 2): reduction
- Action potential duration (APD) ([4]; model of LQT-3, FIG. 1): shortening
- Efficacy (QTc shortening or T-wave morphology) (patients with LQT3; 10 mg, three patients with inherited LQT3): preliminary efficacy
- Dependence of QTc shortening on mutations or concomitant use of b-blockers (patients with LQT3; LQT3 patients): independent
- Tolerability (patients with LQT3; LQT3 patients): well tolerated
- Tolerability (patients with LQT3; [7]): well tolerated; also recorded: well-tolerated
- Change in QTc from baseline (patients with LQT3; LQT3 patients): changes in QTc from baseline
- Change in QTc from baseline (patients with LQT3; [7]): Shortening of QTc was observed at all dose levels; also recorded: shortens QTc interval
- Left ventricular (LV) functions / cardiac function assessed by ECHO (patients with LQT3; LQT3 patients, single and multiple dose cohorts, listed as Compound (I)): did not affect; also recorded: no effect
- Treatment of long QT syndrome in humans, specifically LQT3 (patients with LQT3; human, in vivo): effective
- Persistence of QTc shortening (patients with LQT3; maintenance doses of 6 mg from Days 3-7): sustained
- Dose dependence of QTc shortening (patients with LQT3; multiple dose cohort, 40 mg on Day 2 compared to 20 mg on Day 1): dose-dependent
- QTc shortening (patients with LQT3; ten LQT-3 patients, single dose 10 mg, 20 mg, 30 mg or 60 mg): 20-100 milliseconds
- Prolonged monophasic action potential (MAP) (rabbit isolated heart; 60 nM E-4031, 100 and 300 nM Compound 1, paced at 1 Hz): shortens
- Torsades de pointes (TdP) ventricular tachyarrhythmia (rabbit isolated heart; induced by 60 nM E-4031, paced at 1 Hz): suppresses
- Prolonged action potential duration (APD) [6]: shortens
- QT interval [6]: shortens
- Tpeak to Tend (TpTe) [6]: shortens
- Late sodium channel inhibition [2]: potent late sodium channel inhibitors
